One block for each compound: values may come before it.
Assays:
ZR-75-1 = experiment: Antiproliferative activity against human ZR-75-1 cells expressing wild-type p53 incubated for 72 hrs by MTT assay; type: functional, cell-based; conditions: ZR-75-1, 72 h
HCT-116 [1] = experiment: Antiproliferative activity against human HCT-116 cells expressing wild-type p53 incubated for 72 hrs by MTT assay; type: functional, cell-based; conditions: HCT-116, 72 h
HepG2 = experiment: Antiproliferative activity against human HepG2 cells expressing wild-type p53 incubated for 72 hrs by MTT assay; type: functional, cell-based; conditions: HepG2, 72 h
HCT-116 [2] = experiment: Induction of cell cycle arrest in human HCT-116 cells assessed as accumulation at G2 phase at 5 uM incubated for 24 hrs by PI staining based flow cytometry (reference value: 17.5 %); type: functional
[3] = Stability of compound in 50 percent human serum assessed as half life measured for 24 hrs by HPLC analysis; type: ADME, cell-free; conditions: 50% human serum
MCF7 = experiment: Antiproliferative activity against human MCF7 cells expressing wild-type p53 incubated for 72 hrs by MTT assay; type: functional, cell-based; conditions: MCF7, 72 h
A549 = experiment: Antiproliferative activity against human A549 cells expressing wild-type p53 incubated for 72 hrs by MTT assay; type: functional, cell-based; conditions: A549, 72 h
HCT-116 [4] = experiment: Induction of apoptosis in human HCT-116 cells at 25 uM incubated for 48 hrs by Annexin V-FITC/PI staining based flow cytometry relative to control; type: functional
[5] = Induction of alpha-helical conformation in phosphate buffer at pH 7 at 100 uM by CD analysis; type: physicochemical; conditions: pH 7, 100 µM
HCT-116 [6] = experiment: Induction of apoptosis in human HCT-116 cells at 50 uM incubated for 48 hrs by Annexin V-FITC/PI staining based flow cytometry relative to control; type: functional
HeLa = experiment: Antiproliferative activity against human HeLa cells expressing wild-type p53 incubated for 72 hrs by MTT assay; type: functional, cell-based
HCT-116 [7] = experiment: Induction of cell cycle arrest in human HCT-116 cells assessed as accumulation at S phase at 20 uM incubated for 24 hrs by PI staining based flow cytometry (reference value: 29.4 %); type: functional
HCT-116 [8] = experiment: Induction of apoptosis in human HCT-116 cells at 100 uM incubated for 48 hrs by Annexin V-FITC/PI staining based flow cytometry relative to control; type: functional
HCT-116 [9] = experiment: Induction of cell cycle arrest in human HCT-116 cells assessed as accumulation at S phase at 10 uM incubated for 24 hrs by PI staining based flow cytometry (reference value: 29.4 %); type: functional
A-375 = experiment: Antiproliferative activity against human A-375 cells expressing wild-type p53 incubated for 72 hrs by MTT assay; type: functional, cell-based; conditions: A-375, 72 h
HCT-116 [10] = experiment: Induction of cell cycle arrest in human HCT-116 cells assessed as accumulation at G2 phase at 10 uM incubated for 24 hrs by PI staining based flow cytometry (reference value: 17.5 %); type: functional
HCT-116 [11] = experiment: Induction of cell cycle arrest in human HCT-116 cells assessed as accumulation at G1 phase at 20 uM incubated for 24 hrs by PI staining based flow cytometry (reference value: 50.7 %); type: functional
HCT-116 [12] = experiment: Induction of cell cycle arrest in human HCT-116 cells assessed as accumulation at G2 phase at 20 uM incubated for 24 hrs by PI staining based flow cytometry (reference value: 17.5 %); type: functional
[13] = Antiproliferative activity against human SJSA-1 cells expressing wild-type p53 incubated for 72 hrs by MTT assay; type: functional, cell-based; conditions: SJSA-1, 72 h
HCT-116 [14] = experiment: Induction of cell cycle arrest in human HCT-116 cells assessed as accumulation at G1 phase at 5 uM incubated for 24 hrs by PI staining based flow cytometry (reference value: 50.7 %); type: functional
HCT-116 [15] = experiment: Induction of cell cycle arrest in human HCT-116 cells assessed as accumulation at S phase at 5 uM incubated for 24 hrs by PI staining based flow cytometry (reference value: 29.4 %); type: functional
[16] = Antiproliferative activity against human U-87 MG cells expressing wild-type p53 incubated for 72 hrs by MTT assay; type: functional, cell-based, U-87MG ATCC
HCT-116 [17] = experiment: Induction of cell cycle arrest in human HCT-116 cells assessed as accumulation at G1 phase at 10 uM incubated for 24 hrs by PI staining based flow cytometry (reference value: 50.7 %); type: functional
[18] = Antiproliferative activity against HEK293T cells incubated for 72 hrs by MTT assay; type: toxicity, cell-based, HEK-293T; conditions: human
HCT-116 [19] = experiment: Induction of cell cycle arrest in human HCT-116 cells assessed as accumulation at G2 phase at 20 uM incubated for 24 hrs by PI staining based flow cytometry (reference value: 17.1 %); type: functional
HCT-116 [20] = experiment: Antitumor activity against human HCT-116 cells xenografted in BALB/c nude mouse at 10 mg/kg, iv treated for 14 days on every 48 hrs relative to control; type: functional; conditions: HCT-116, 336 h, time 14 day, read-out: TGI
HCT-116 [21] = experiment: Induction of cell cycle arrest in human HCT-116 cells assessed as accumulation at G2 phase at 10 uM incubated for 24 hrs by PI staining based flow cytometry (reference value: 17.1 %); type: functional
HCT-116 [22] = experiment: Induction of cell cycle arrest in human HCT-116 cells assessed as accumulation at S phase at 20 uM incubated for 24 hrs by PI staining based flow cytometry (reference value: 31.8 %); type: functional
HCT-116 [23] = experiment: Induction of cell cycle arrest in human HCT-116 cells assessed as accumulation at G1 phase at 5 uM incubated for 24 hrs by PI staining based flow cytometry (reference value: 48.8 %); type: functional
HCT-116 [24] = experiment: Induction of cell cycle arrest in human HCT-116 cells assessed as accumulation at G1 phase at 20 uM incubated for 24 hrs by PI staining based flow cytometry (reference value: 48.8 %); type: functional
[25] = Toxicity in BALB/c nude mouse xenografted with human HCT-116 cells assessed as histopathological change in liver at 5 to 10 mg/kg, iv treated for 14 days on every 48 hrs by H and E staining based analysis; type: organism-based; conditions: in vivo, 336 h, dose 5-10 mg/kg, time 14 day
[26] = Toxicity in BALB/c nude mouse xenografted with human HCT-116 cells assessed as change in weight of lungs at 5 to 10 mg/kg, iv treated for 14 days on every 48 hrs; type: organism-based; conditions: in vivo, 336 h, dose 5-10 mg/kg, time 14 day
[27] = Toxicity in BALB/c nude mouse xenografted with human HCT-116 cells assessed as histopathological change in heart at 5 to 10 mg/kg, iv treated for 14 days on every 48 hrs by H and E staining based analysis; type: organism-based; conditions: in vivo, 336 h, dose 5-10 mg/kg, time 14 day
HCT-116 [28] = experiment: Induction of cell cycle arrest in human HCT-116 cells assessed as accumulation at S phase at 5 uM incubated for 24 hrs by PI staining based flow cytometry (reference value: 31.8 %); type: functional
[29] = Toxicity in BALB/c nude mouse xenografted with human HCT-116 cells assessed as histopathological change in lungs at 5 to 10 mg/kg, iv treated for 14 days on every 48 hrs by H and E staining based analysis; type: organism-based; conditions: in vivo, 336 h, dose 5-10 mg/kg, time 14 day
[30] = Toxicity in BALB/c nude mouse xenografted with human HCT-116 cells assessed as change in weight of spleen at 5 to 10 mg/kg, iv treated for 14 days on every 48 hrs; type: organism-based; conditions: in vivo, 336 h, dose 5-10 mg/kg, time 14 day
HCT-116 [31] = experiment: Antitumor activity against human HCT-116 cells xenografted in BALB/c nude mouse at 5 mg/kg, iv treated for 14 days on every 48 hrs relative to control; type: functional; conditions: HCT-116, 336 h, time 14 day, read-out: TGI
[32] = Toxicity in BALB/c nude mouse xenografted with human HCT-116 cells assessed as histopathological change in spleen at 5 to 10 mg/kg, iv treated for 14 days on every 48 hrs by H and E staining based analysis; type: organism-based; conditions: in vivo, 336 h, dose 5-10 mg/kg, time 14 day
[33] = Toxicity in BALB/c nude mouse xenografted with human HCT-116 cells assessed as change in weight of kidneys at 5 to 10 mg/kg, iv treated for 14 days on every 48 hrs; type: organism-based; conditions: in vivo, 336 h, dose 5-10 mg/kg, time 14 day
HCT-116 [34] = experiment: Induction of cell cycle arrest in human HCT-116 cells assessed as accumulation at S phase at 10 uM incubated for 24 hrs by PI staining based flow cytometry (reference value: 31.8 %); type: functional
HCT-116 [35] = experiment: Induction of cell cycle arrest in human HCT-116 cells assessed as accumulation at G2 phase at 5 uM incubated for 24 hrs by PI staining based flow cytometry (reference value: 17.1 %); type: functional
HCT-116 [36] = experiment: Induction of cell cycle arrest in human HCT-116 cells assessed as accumulation at G1 phase at 10 uM incubated for 24 hrs by PI staining based flow cytometry (reference value: 48.8 %); type: functional
[37] = Toxicity in BALB/c nude mouse xenografted with human HCT-116 cells assessed as change in body weight at 5 to 10 mg/kg, iv treated for 14 days on every 48 hrs; type: organism-based; conditions: in vivo, 336 h, dose 5-10 mg/kg, time 14 day
[38] = Toxicity in BALB/c nude mouse xenografted with human HCT-116 cells assessed as change in weight of heart at 5 to 10 mg/kg, iv treated for 14 days on every 48 hrs; type: organism-based; conditions: in vivo, 336 h, dose 5-10 mg/kg, time 14 day
[39] = Toxicity in BALB/c nude mouse xenografted with human HCT-116 cells assessed as histopathological change in kidneys at 5 to 10 mg/kg, iv treated for 14 days on every 48 hrs by H and E staining based analysis; type: organism-based; conditions: in vivo, 336 h, dose 5-10 mg/kg, time 14 day
[40] = Toxicity in BALB/c nude mouse xenografted with human HCT-116 cells assessed as change in weight of liver at 5 to 10 mg/kg, iv treated for 14 days on every 48 hrs; type: organism-based; conditions: in vivo, 336 h, dose 5-10 mg/kg, time 14 day

IC50 (HCT-116 [1]): 14.6 µM
IC50 (HepG2): > 160 µM
half-life [3]: 3 h
IC50 (MCF7): 25.3 µM
IC50 (A549): 6.4 µM
Activity [5]: 11%
IC50 (HeLa): 91.8 µM
IC50 (A-375): > 160 µM
SMILES: CSCC[C@H](NC(=O)[C@H](CC(C)C)NC(=O)[C@H](CCC(N)=O)NC(=O)[C@@H]1CCCCNCc2ccc(cc2)CNCCCC[C@H](NC(=O)[C@H](Cc2ccccc2)NC(=O)[C@@H](NC(=O)[C@H](CC(C)C)NC(C)=O)[C@@H](C)O)C(=O)N[C@@H](CCC(=O)O)C(=O)N[C@@H](Cc2ccc(O)cc2)C(=O)N[C@@H](Cc2c[nH]c3ccccc23)C(=O)N1)C(=O)N[C@@H](CCC(N)=O)C(=O)N[C@@H](C)C(=O)N[C@@H](C)C(N)=O
IC50 (ZR-75-1): 7.2 µM
Activity (HCT-116 [2]): 23.9%
Activity (HCT-116 [4]): 55.66%
Activity (HCT-116 [6]): 56.51%
Activity (HCT-116 [7]): 32.3%
Activity (HCT-116 [8]): 70.13%
Activity (HCT-116 [9]): 36.2%
Activity (HCT-116 [10]): 29%
Activity (HCT-116 [11]): 34.1%
Activity (HCT-116 [12]): 32.7%
IC50 [13]: > 160 µM
Activity (HCT-116 [14]): 33.8%
Activity (HCT-116 [15]): 40.5%
IC50 [16]: 7.2 µM
Activity (HCT-116 [17]): 33.9%
IC50 at 72 h [18]: > 160 µM

IC50 (HCT-116 [1]): 5.8 µM
IC50 (HepG2): > 160 µM
half-life [3]: 12 h
IC50 (MCF7): 2.99 µM
IC50 (A549): 27.4 µM
Activity [5]: 11%
IC50 (HeLa): 45.9 µM
IC50 (A-375): 49.2 µM
SMILES: CC(=O)N[C@@H](CC(C)C)C(=O)N[C@H](C(=O)N[C@@H](Cc1ccccc1)C(=O)N[C@H]1CCCCNCc2cccc(c2)CNCCCC[C@@H](C(=O)N[C@@H](CCC(N)=O)C(=O)N[C@@H](CC(C)C)C(=O)N[C@H](C(=O)N[C@@H](CO)C(=O)N[C@@H](C)C(=O)N[C@@H](C)C(N)=O)[C@@H](C)O)NC(=O)[C@H](Cc2c[nH]c3ccccc23)NC(=O)[C@H](Cc2ccc(O)cc2)NC(=O)[C@H](Cc2c[nH]cn2)NC1=O)[C@@H](C)O
IC50 (ZR-75-1): 2.6 µM
Activity (HCT-116 [19]): 31.2%
inhibition in vivo at 10 mg/kg (HCT-116 [20]): 30%
Activity (HCT-116 [21]): 28%
Activity (HCT-116 [22]): 30.5%
Activity (HCT-116 [23]): 35.6%
Activity (HCT-116 [24]): 37.4%
Activity [25]: Non-toxic
Activity (HCT-116 [4]): 35.22%
Activity [26]: Non-toxic
Activity [27]: Non-toxic
Activity (HCT-116 [28]): 37.7%
Activity (HCT-116 [6]): 94.4%
Activity [29]: Non-toxic
Activity [30]: Non-toxic
Activity (HCT-116 [8]): 93.14%
inhibition in vivo at 5 mg/kg (HCT-116 [31]): 13%
Activity [32]: Non-toxic
Activity [33]: Non-toxic
Activity (HCT-116 [34]): 33%
Activity (HCT-116 [35]): 25.3%
Activity (HCT-116 [36]): 38.1%
Activity [37]: Non-toxic
IC50 [13]: > 160 µM
IC50 [16]: 3.7 µM
Activity [38]: Non-toxic
Activity [39]: Non-toxic
IC50 at 72 h [18]: > 160 µM
Activity [40]: Non-toxic

From ChEMBL document CHEMBL6120948, “Design, Synthesis, and Biological Evaluation of Lysine-Stapled Peptide Inhibitors of p53-MDM2/MDMX Interactions with Potent Antitumor Activity In Vivo” (J Med Chem, 2024)
